Test results taken from patent US9273003B2, “Methods of treating lymphoma and rheumatoid arthritis with cyclopentyl (2S)-cyclohexyl[({6-[3-(hydroxyamino)-3-oxopropyl]pyridin-3-yl}methyl)amino]acetate” (GlaxoSmithKline Intellectual Property Development Limited, priority 2006, dated 2016).

What was measured:
[1] = molecular target: histone deacetylase activity (HeLa nuclear extract); test: HDAC fluorescent activity assay (Fluor de Lys, Biomol); format: biochemical; details: IC50 allocated to ranges, read-out: HDAC activity
Procedure: The ability of compounds to inhibit histone deacetylase activities was measured using the commercially available HDAC fluorescent activity assay from Biomol. In brief, the Fluor de Lys™ substrate, a lysine with an epsilon-amino acetylation, is incubated with the source of histone deacetylase activity (HeLa nuclear extract) in the presence or absence of inhibitor. Deacetylation of the substrate sensitises the substrate to Fluor de Lys™ developer, which generates a fluorophore. Thus, incubation of the substrate with a source of HDAC activity results in an increase in signal that is diminished in the presence of an HDAC inhibitor.
Data are expressed as a percentage of the control, measured in the absence of inhibitor, with background signal being subtracted from all samples, as follows: % activity=[(S^i−B)/(S^o−B)]×100 where S^i is the signal in the presence of substrate, enzyme and inhibitor, S^o is the signal in the presence of substrate, enzyme and the vehicle in which the inhibitor is dissolved, and B is the background signal measured in the absence of enzyme.
IC50 values were determined by non-linear regression analysis, after fitting the results of eight data points to the equation for sigmoidal dose response with variable slope (% activity against log concentration of Compound), using Graphpad Prism software.
Histone deacetylase activity from crude nuclear extract derived from HeLa cells was used for screening. The preparation, purchased from 4C (Seneffe, Belgium), was prepared from HeLa cells harvested whilst in exponential growth phase. The nuclear extract was prepared according to the methodology described by J. D. Dignam, Nucl. Acid. Res., 1983, 11, 1475-1489, snap frozen in liquid nitrogen and stored at −80° C. The final buffer composition was 20 mM Hepes, 100 mM KCl, 0.2 mM EDTA, 0.5 mM DTT, 0.2 mM PMSF and 20% (v/v) glycerol.

HUT78 cells = test: HUT cell inhibition assay (WST-1 cell viability); format: cell-based; details: Homo sapiens; HUT78 cells; IC50 allocated to ranges; read-out: HUT activity
Procedure: (§1) Cancer cell lines (U937 and HUT) growing in log phase were harvested and seeded at 1000-2000 cells/well (100 μl final volume) into 96-well tissue culture plates. Following 24 h of growth cells were treated with Compound. Plates were then re-incubated for a further 72-96 h before a WST-1 cell viability assay was conducted according to the suppliers (Roche Applied Science) instructions.
(§2) Data were expressed as a percentage inhibition of the control, measured in the absence of inhibitor, as follows: % inhibition=100−[(S^i/S^o)×100] where S^i is the signal in the presence of inhibitor and S^o is the signal in the presence of DMSO.
(§3) Dose response curves were generated from 8 concentrations (top final concentration 10 μM, with 3-fold dilutions), using 6 replicates.
(§4) IC50 values were determined by non-linear regression analysis, after fitting the results to the equation for sigmoidal dose response with variable slope (% activity against log concentration of Compound), using Graphpad Prism software.

U937 cells = test: U937 cell inhibition assay (WST-1 cell viability); format: cell-based; details: Homo sapiens, U-937; U937 cells; IC50 allocated to ranges; read-out: U937 activity
Procedure: as §1, §2, §3, §4

| SMILES | IC50 [1] [nM] | IC50 (U937 cells) [nM] | IC50 (HUT78 cells) [nM] |
| --- | --- | --- | --- |
| CC(C)C[C@@H](NCc1ccc(/C=C/C(=O)NO)cc1)C(=O)O [Example 92] | 101 to 1000 |  |  |
| O=C(CCc1ccc(CN[C@H](C(=O)O)C2CCCCC2)nc1)NO [Example 104] | 101 to 1000 |  |  |
| CC(C)C[C@H](NCc1ccc(CCC(=O)NO)cc1)C(=O)OC(C)(C)C [Example 41, tert-Butyl N-{4-[3-(hydroxyamino)-3-oxopropyl]benzyl}-L-leucinate] | 101 to 1000 | < 330 | 331 to 3300 |
| O=C(CCc1ccc(CN2CCNC(C(=O)O)C2)cc1)NO (stereo not drawn) [Example 114, 4-{4-[3-(Hydroxyamino)-3-oxopropyl]benzyl}piperazine-2-carboxylic acid] | > 1000 |  |  |
| CC(C)(C)OC[C@H](NCc1ccc(/C=C/C(=O)NO)cc1)C(=O)O [Example 90] | 101 to 1000 |  |  |
| O=C(/C=C/c1ccc(CN[C@H](CO)C(=O)OC2CCCC2)cc1)NO [Example 72, Cyclopentyl N-{4-[(1E)-3-(hydroxyamino)-3-oxoprop-1-en-1-yl]benzyl}-D-serinate] | 101 to 1000 | 331 to 3300 | 331 to 3300 |
| CC(C)[C@@H]1CC[C@@H](C)C[C@H]1OC(=O)[C@@H](NCc1ccc(CCC(=O)NO)cc1)C1CCCCC1 [Example 46, (1R,2S,5R)-2-Isopropyl-5-methylcyclohexyl (2S)-cyclohexyl({4-[3-(hydroxyamino)-3-oxopropyl]benzyl}amino)acetate] | > 1000 | > 3300 | > 3300 |
| CC(C)C[C@H](NCc1cccc(CCC(=O)NO)c1)C(=O)OC1CCCC1 [Example 52, Cyclopentyl N-{3-[3-(hydroxyamino)-3-oxopropyl]benzyl}-L-leucinate] | > 1000 | 331 to 3300 | > 3300 |
| O=C(CCc1ccc(CN[C@H](C(=O)OC2CCCC2)c2ccccc2)cn1)NO [Example 65, Cyclopentyl (2S)-[({6-[3-(hydroxyamino)-3-oxopropyl]pyridin-3-yl}methyl)amino](phenyl)acetate] | 101 to 1000 | < 330 | 331 to 3300 |
| O=C(CCc1ccc(CN[C@H](C(=O)O)c2ccccc2)cc1)NO [Example 98] | > 1000 |  |  |
| CC(C)(C)[C@H](NCc1ccc(CCC(=O)NO)cc1)C(=O)OC1CCCC1 [Example 43, Cyclopentyl N-{4-[3-(hydroxyamino)-3-oxopropyl]benzyl}-3-methyl-L-valinate] | > 1000 | 331 to 3300 | 331 to 3300 |
| O=C(/C=C/c1ccc(CN[C@@H](C(=O)O)c2ccccc2)cc1)NO [Example 95] | 101 to 1000 |  |  |
| O=C(/C=C/c1cccc(CNCC2CCC(CN[C@H](C(=O)O)C3CCCCC3)CC2)c1)NO (stereo partly drawn) [Example 105] | > 1000 |  |  |
| O=C(/C=C/c1ccc(CN2CCC(N[C@H](C(=O)O)C3CCCCC3)CC2)cc1)NO [Example 106] | 101 to 1000 |  |  |
| CC(C)[C@H](NCc1ccc(CCC(=O)NO)cc1)C(=O)O [Example 99] | > 1000 |  |  |
| CC(C)C[C@H](NCc1ccc(CCC(=O)NO)nc1)C(=O)O [Example 110, N-({6-[3-(hydroxyamino)-3-oxopropyl]pyridin-3-yl}methyl)-L-leucine] | 101 to 1000 |  |  |
| O=C(/C=C/c1ccc(CN[C@@H](C(=O)O)C2CCCCC2)cc1)NO [Example 93] | 101 to 1000 |  |  |
| CC[C@H](C)[C@H](NCc1ccc(CCC(=O)NO)cc1)C(=O)O [Example 109, N-{4-[3-(Hydroxyamino)-3-oxopropyl]benzyl}-L-isoleucine] | > 1000 |  |  |
| CC(C)(C)OC(=O)[C@@H](NCc1cccc(CCC(=O)NO)c1)c1ccccc1 [Example 49, tert-Butyl (2S)-({3-[3-(hydroxyamino)-3-oxopropyl]benzyl}amino)(phenyl)acetate] |  | > 3300 | > 3300 |
| CC(C)(C)[C@H](NCc1ccc(CCC(=O)NO)cc1)C(=O)O [Example 100] | > 1000 |  |  |
| O=C(/C=C/c1ccc(CN[C@H](C(=O)O)c2ccccc2)cc1)NO [Example 91] | 101 to 1000 |  |  |
| O=C(CCc1ccc(CN[C@H](C(=O)O)C2CCCCC2)cc1)NO [Example 96] | 101 to 1000 |  |  |
| CC(C)(C)OC[C@@H](NCc1ccc(/C=C/C(=O)NO)cc1)C(=O)O [Example 94] | 101 to 1000 |  |  |
| O=C(/C=C/c1ccc(CN2CCC(CN[C@H](C(=O)O)c3ccccc3)CC2)cc1)NO [Example 107] | > 1000 |  |  |

More lines, main results first:

| IC50 [1] [nM] | IC50 (U937 cells) [nM] | SMILES | IC50 (HUT78 cells) [nM] |
| --- | --- | --- | --- |
| 101 to 1000 | 331 to 3300 | CC(C)C[C@H](NCc1ccc(/C=C/C(=O)NO)cn1)C(=O)OC(C)(C)C [Example 69, tert-Butyl N-({5-[(1E)-3-(hydroxyamino)-3-oxoprop-1-en-1-yl]pyridin-2-yl}methyl)-L-leucinate] | 331 to 3300 |
| 101 to 1000 | 331 to 3300 | O=C(CCc1cccc(CN[C@H](C(=O)OC2CCCC2)C2CCCCC2)c1)NO [Example 50, Cyclopentyl (2S)-cyclohexyl({3-[3-(hydroxyamino)-3-oxopropyl]benzyl}amino)acetate] | 331 to 3300 |
| < 100 | < 330 | O=C(/C=C/c1ccc(CN[C@H](C(=O)OC2CCCC2)C2CCCCC2)nc1)NO [Example 68, Cyclopentyl (2S)-cyclohexyl[({5-[(1E)-3-(hydroxyamino)-3-oxoprop-1-en-1-yl]pyridin-2-yl}methyl)amino]acetate] | 331 to 3300 |
| < 100 | < 330 | O=C(/C=C/c1ccc(CN[C@H](C(=O)OC2CCCC2)c2ccccc2)cn1)NO [Example 60, Cyclopentyl (2S)-[({6-[(1E)-3-(hydroxyamino)-3-oxoprop-1-en-1-yl]pyridin-3-yl}methyl)amino](phenyl)acetate] | < 330 |
| < 100 |  | O=C(/C=C/c1ccc(CN[C@H](C(=O)O)C2CCCCC2)cn1)NO [Example 101] |  |
| < 100 |  | CC(C)C[C@H](NCc1ccc(CCC(=O)NO)cc1)C(=O)O [Example 97] |  |
| < 100 |  | CC(C)C[C@H](NC(C)c1ccc(/C=C/C(=O)NO)cc1)C(=O)O (stereo partly drawn) [Example 112, N-(1-{4-[(1E)-3-(Hydroxyamino)-3-oxoprop-1-en-1-yl]phenyl}ethyl)-L-leucine] |  |
| < 100 | < 330 | O=C(/C=C/c1ccc(CN[C@H](C(=O)OCc2ccccc2)C2CCCCC2)cc1)NO [Example 24, Benzyl (2S)-cyclohexyl({4-[(1E)-3-(hydroxyamino)-3-oxoprop-1-en-1-yl]benzyl}amino)acetate] | < 330 |
| < 100 | 331 to 3300 | CC(C)(C)OC(=O)[C@@H](NCc1ccc(/C=C/C(=O)NO)cc1)C1CCCCC1 [Example 32, tert-Butyl (2S)-cyclohexyl({4-[(1E)-3-(hydroxyamino)-3-oxoprop-1-en-1-yl]benzyl}amino)acetate] | 331 to 3300 |
| < 100 |  | CC(C)C[C@H](NCc1ccc(/C=C/C(=O)NO)nc1)C(=O)O [Example 102] |  |
| < 100 |  | CC(C)(C)OC(=O)[C@@H](NCc1ccc(CCC(=O)NO)nc1)C1CCCCC1 [Example 63, tert-Butyl (2S)-cyclohexyl[({6-[3-(hydroxyamino)-3-oxopropyl]pyridin-3-yl}methyl)amino]acetate] |  |
| < 100 |  | O=C(CCc1ccc(CN[C@H](C(=O)O)C2CCCCC2)cn1)NO [Example 103] |  |
| < 100 |  | CC(N[C@H](C(=O)O)C1CCCCC1)c1ccc(/C=C/C(=O)NO)cc1 (stereo partly drawn) [Example 108] |  |
| < 100 |  | CC(C)C[C@H](NCc1ccc(/C=C/C(=O)NO)cc1)C(=O)O [Example 89] |  |
